Test results as given in a melting point compilation (Tetko et al.; mined from patent text by program, amines drawn as free bases though some values may be those of a salt).

Point of comparison: `O=S(=O)(N[C@@H]1c2ccccc2CCC[C@H]1O)c1ccccc1` (relative stereo), melting point 128 °C. Against it:
- NCC1Cc2cc(-c3ccccc3)cc(-c3ccc(F)cc3)c2O1 (centres undefined) — higher, > 250 °C
- N#Cc1ccc(Nn2cnnc2)cc1-c1ccco1 — higher, 217 to 218 °C
- C=CCOc1ccc(CC(=O)NCC(=O)O)cc1Cl — lower, 115 to 119 °C
- O=c1[nH]c2sccc2c(=O)n1CCN1CCC(=C(c2ccc(F)cc2)c2ccc(F)cc2)CC1 — higher, 205 to 207 °C
- Cc1nnc(-c2ccc3occ(-c4ccc(C=O)c(F)c4)c3c2)o1 — higher, 207 to 208 °C
- CC(=O)N1CCc2cc(N)ccc21 — higher, 183 to 185 °C
- COc1c(C(=O)O)n(Cc2ccccc2)c2ccccc12 — lower, 115 to 117 °C
- O=C(c1ccc2ccn(CCOc3ccc(CC(OCC(F)(F)F)C(=O)O)cc3)c2n1)C1CC1 (centres undefined) — lower, 113 °C
- O=CNc1cccc2ccccc12 — higher, 134 to 135 °C
- O=C1CCC(N2Cc3c(OCc4ccc(Cl)cc4)cccc3C2=O)C(=O)N1 (centres undefined) — higher, 224 to 226 °C
- NC(CC(=O)c1ccc(N2CCN(c3ccncc3)CC2)cc1)C(=O)O (centres undefined) — higher, 263 to 264 °C
- Cc1c(-c2ccc(O)cc2)n(Cc2ccc(OCCN3C(C)CCCC3C)cc2)c2ccc(O)cc12 (centres undefined) — lower, 114 to 121 °C
- Cc1ccc(S(=O)(=O)Nc2ccc(Oc3ccc4nc(COc5ccc(CC6SC(=O)NC6=O)cc5)n(C)c4c3)cc2)cc1 (centres undefined) — higher, 132 to 136 °C
- CC1(C)OC[C@H](CCOc2ccc(-c3nc4c5ccccc5c5ccccc5c4[nH]3)cc2)O1 — higher, 196 to 198 °C
- O=C(O)c1ccc2c(c1)C(=O)C(=Cc1cccs1)O2 — higher, 310 to 312 °C
- Nc1cc(N2CC(c3ccccc3)OC2=O)ccn1 (centres undefined) — higher, 155 to 156 °C
- CCOC(=O)c1c(C(F)(F)F)nc(C(F)(F)F)c(C(=O)OC)c1N1CCCC1 — lower, 68.5 to 70 °C
- CC(=O)N[C@@H](C)COc1ccc2nc(-c3cc(F)c(OCC4CC4)cc3F)oc2c1F — higher, 153 °C
- COC(=O)COc1ccc2c(c1)Oc1cc(O)ccc1C21OC(=O)c2ccccc21 (centres undefined) — higher, 236 °C
- O=C1CC(=O)N(c2ccccc2)c2cc(Cl)ccc2N1CC1CC1 — higher, 215 to 218 °C
- O=C1c2ccccc2C(=O)C1c1cccc([N+](=O)[O-])c1 — higher, 216 to 226 °C
- CCCSCC(=O)NNC(=O)N1Cc2ccccc2Oc2ccc(Cl)cc21 — lower, 78 to 81 °C
- CC1(O)Nc2cc(O)c(C(C)(C)C)cc2O1 (centres undefined) — higher, 203 to 205 °C
- O=C(NCCCN1C(=O)C2(COc3cc4c(cc32)CCO4)c2ccccc21)c1ccccc1OC(F)(F)F (centres undefined) — lower, 65 to 70 °C
- CCc1nc(O)cc(O)n1 — higher, 312 to 315 °C
- CC1(C)CC(=O)C2(CCC(=O)O)CC1C2 — lower, 90 to 93 °C
- O=C1NCCC[C@@H]1NS(=O)(=O)c1ccccc1C(F)(F)F — higher, 161 to 163 °C
- COc1ccc(S(N)(=O)=O)cc1CC(C)=O — higher, 138 to 139 °C
- CC(C)C1(C)CC(O)C2(C)CCC3c4ccc(O)cc4CCC3C12 (centres undefined) — higher, 201 to 205 °C
- COc1ccc(C(=O)C=Cc2ccccc2F)c(OC)c1OC — lower, 75 to 75.8 °C
- CC(=O)Nc1cccc(OC(Cn2ccnc2)c2ccc(Cl)cc2Cl)c1 (centres undefined) — lower, 108 to 112 °C
- Nc1ccc(C(=O)N2Cc3cccn3-c3ccccc32)cc1 — higher, 225 to 228 °C
- O=[N+]([O-])C1NC=CN1c1ccncc1 (centres undefined) — higher, 234 °C
- CC(=O)Oc1c(C)nc(N(C)C)nc1-c1ccccc1 — not separable, 126 to 128 °C
- CCc1nc2c(N)nc3cccnc3c2n1CC1(O)CCOCC1 — higher, > 250 °C
- CCCCOc1cc(C(=O)N(C)C)cc(S(N)(=O)=O)c1Cc1ccccc1 — higher, 199 to 201 °C
- Clc1ccc(-c2nnnn2Cc2cccnc2)cc1Cl — higher, 166 to 168 °C
- CC(=O)OCC(C)(C)CS(N)(=O)=O — lower, 106 to 109 °C
- CCOC(=O)c1c2n(c3ccc(Cl)cc3c1=O)CCS2 — higher, 321 °C
- CCCOc1ccc(S(=O)(=O)NCc2ccncc2)cc1-c1nc2cc3nc[nH]c3cc2c(=O)[nH]1 — higher, 189 to 190 °C
- COc1ccc2oc(Cc3cccc(F)c3)c(CC#N)c2c1 — lower, 67 °C
- COc1cn(-c2ccccc2F)nc(-c2ccnn2-c2ccccc2)c1=O — higher, 163 to 165 °C
- COc1cc(F)c(C)cc1C(=O)O — lower, 125 to 127 °C
- CC(C)(C)OC(=O)N[C@@H]1C(=O)N[C@H]1C1CCCCC1 (relative stereo) — higher, 130 to 132 °C
- C#CCNC1=Nc2c(c(C)nn2C)C(c2ccccc2)=NC1 — higher, 193 to 195 °C
- Nc1cc(C(=O)O)cc(OCc2ccc(Cl)cc2)c1Cc1ccccc1 — higher, 199 to 200 °C
- O=C1OCc2ncccc21 — lower, 113 to 118 °C
- COc1cccc(COc2cc3c(cc2-c2cc(C=CC(=O)O)ccc2OC)C(C)(C)CCC3(C)C)c1 — lower, 76 to 78 °C
- Nc1nc(=O)n(CCCCn2cncn2)cc1F — higher, 197 to 200 °C
- CCOC(=O)N1CCN(CCS(=O)c2ccccc2)CC1 (centres undefined) — lower, 76 °C
- Cn1cnc2nc(-c3ccc(F)cc3)nn2c1=S — higher, > 300 °C
- CC1C(=O)NCCN1C(=O)C(Cl)Cl (centres undefined) — higher, 167 to 168 °C
- CC(C)(C)OC(=O)Nc1cc(CO)c(C#Cc2ccc(F)cc2)cc1[N+](=O)[O-] — higher, 198 °C
- N=C(N)NCCC[C@H](NC(=O)CNC(=O)C(CS)Cc1ccccc1)C(=O)O (some centres undefined) — not separable, 120 to 137 °C
- CCOC(=O)C(Cc1ccc(C(F)(F)F)c(F)c1)C(=O)c1ccc(F)cc1 (centres undefined) — lower, 56 to 57 °C
- C(=C(c1ccccc1)c1ccccc1)c1ccc(N(c2ccccc2)c2ccc(N(c3ccccc3)c3ccccc3)cc2)cc1 — higher, 218 to 219 °C
- CN1C(=O)C2(COc3cc4c(cc32)OCCO4)c2c(-c3ccoc3)cccc21 (centres undefined) — higher, 178 to 180 °C
- COc1cc2nc(N3CCN(C(=O)c4nnc(SC)o4)CC3)nc(N)c2cc1OC — higher, 228 to 230 °C
- CCCCC(C(=O)OCC)c1ccc(N2Cc3ccccc3C2=N)cc1 (centres undefined) — higher, 140 to 142 °C
- CCCc1c(OCc2ccccc2)ccc2c(C)c(C(=O)c3ccc(OC)cc3)oc12 — lower, 105 to 106 °C
- CC(C)C(=O)O[C@H]1[C@H](C)OC(=O)[C@@H](NC(=O)OC(C)(C)C)COC(=O)[C@@H]1Cc1ccccc1 — higher, 143 to 145 °C
- O=C1OC(CN2CCC(O)(c3ccc(F)cc3)CC2)CN1c1ccccc1 (centres undefined) — not separable, 128 to 129 °C
- N#Cc1cccc(C2C3=C(CCS3)NC3=C2C(=O)CCC3)c1 (single isomer, unassigned; (+)) — higher, > 250 °C
- CC(C)(C)OC(=O)Nc1ccc(CC(=O)N2CCC(c3[nH]nc4c3C(=O)c3c(NC(=O)NN5CCOCC5)cccc3-4)CC2)cc1 — higher, 177 to 178 °C
- CNS(=O)(=O)c1ccc(Nc2nc(-c3ccccc3)cc(N3CCC(O)CC3)n2)cc1 — higher, 280 to 285 °C
- Cc1nc(N2CCN(c3ccc(F)cc3)CC2)c(C#N)nc1-c1ccccc1 — lower, 117 to 120 °C
- CCOC(=O)C(=O)Nc1ccc(NC(=O)C(=O)OCC)c(C#N)c1 — higher, 140 to 141 °C
- C[C@@H]1c2ccccc2-c2ccc(F)cc2N1C(=O)c1ccc(O)cc1O — higher, 182 to 184 °C
- COC(=O)c1cc(/C=N/O)ccc1[N+](=O)[O-] — lower, 116 °C
- Fc1ccc(-c2cc3ncnc(Nc4ccc5[nH]ccc5c4)c3s2)cc1 — higher, 193 to 205 °C
- Cc1c(Cl)cc(C(C)C)c(-c2c(C(C)C)cc(Cl)c(C)c2O)c1O — lower, 98 °C
- CN(c1cccc2cc(-c3nccs3)[nH]c12)S(=O)(=O)c1ccsc1CO — higher, 192 °C
- COc1cc(C2=CCCCC2)c(Cl)cc1C(=O)N1Cc2ccc(C(=O)N(C)Cc3cccnc3)n2Cc2ccccc21 — higher, 178 to 179 °C
- O=C1CCC(N2C(=O)c3cccc(OCc4ccc(CN5CCOCC5)cc4)c3C2=O)C(=O)N1 (centres undefined) — higher, 205 to 207 °C
- OC(CCC1CCN(Cc2ccccc2)CC1)c1ccc(N2CCCC2)cc1 (centres undefined) — lower, 93 to 95 °C
- CNc1nc(Cl)c(Cl)c(N2CCN(CC[C@H]3CC[C@H](NC(=O)OC(C)(C)C)CC3)CC2)n1 — higher, 199 to 202 °C
- O=C(O)CCCc1ccccc1CC1C(=O)CC(=O)C1=O (centres undefined) — lower, 123 °C
- CCCCCCCCCCCCCCOc1ccc(OCc2ccccc2)c(C(=O)N(CC(=O)O)CC(=O)O)c1 — lower, 71 to 74 °C
- Cc1c(-c2ccccc2)nn(N)c1OCCN1CCCC1 — lower, 109 °C
- O=Cc1cccc(C=Cc2ccccc2)c1 — lower, 90 °C
- O=C(NC1CCC(CCN2CCN(c3nccc4c3CCO4)CC2)CC1)C(O)C(F)(F)F (racemic) — higher, 204 °C
- CCOC(=O)c1cc2c(OC)cccc2[nH]1 — higher, 168 to 170 °C
- O=C(NCCNCc1cc2cc(O)ccc2o1)C12CC3CC(CC(C3)C1)C2 — higher, 140 to 143 °C
- Cc1cccc(NS(=O)(=O)c2ccc([N+](=O)[O-])cc2)c1 — lower, 121 to 124 °C
- O=C1CCCCC1C(C[N+](=O)[O-])c1ccc(F)cc1 (racemic) — lower, 84 to 85 °C
- Cc1ccccc1CC1CNC(=O)O1 (centres undefined) — lower, 121 to 122 °C
- O=C(O)Cc1cn2ccccc2n1 — higher, 205 to 208 °C
- CCOP(=O)(/C=C/c1cn(-c2ccccc2)nc1OCc1ccc(OCc2nc(-c3cccc(O)c3)oc2C)c(OC)c1)OCC — not separable, 127 to 128 °C
- CCCCCCCCCCc1cc(CCCCCCCCCC)cc(N(CC(=O)O)CC(=O)O)c1 — lower, 78 to 81 °C
- Cc1ccc(CON2C(C(F)(F)F)C(C(=O)Nc3ccccc3)=CN2C)c(C)c1 (centres undefined) — lower, 123 to 125 °C
- CC(C)n1nc(C(=O)NCC2CCN(CCc3ccc(C(=O)O)cc3)CC2)c2ccccc21 — higher, 179 to 181 °C
- CON1CCN2C(=O)C(c3c(C)cc(C)cc3C)C(=O)N2CC1 — higher, 229 to 230 °C
- C=Cn1c(Cl)cc(Cl)c(O)c1=S — lower, 114 °C
- O=C(O)/C=C/c1cc(C2CC2)nn1Cc1ccc(C(F)(F)F)cc1Cl — higher, 191 to 192 °C
- N#Cc1cc(F)cc(-c2cc([N+](=O)[O-])c3c(c2)C2(CCCCC2)C(=O)N3)c1 — higher, 196 °C
- Cc1[nH]c(C(=O)N2CCC(C(=O)N(C)CCN(C)C)CC2)c(C)c1-c1nc2ccc(C(=O)c3ccccc3)cc2[nH]1 — higher, 264 to 266 °C
- CCCC(=NOCC)C1=C(O)CC(c2c(OC)nc(C)c3c2CCCC3=O)CC1=O (centres undefined) — higher, 162 °C
- CC(c1ccccc1[N+](=O)[O-])S(N)(=O)=O (centres undefined) — lower, 107 to 109 °C
